1 compound from ChEMBL document CHEMBL1138879 (J Med Chem, 2006) can be followed below.

A short description of data set [1]: in vivo. Particulars: dog, po, 10 mg/kg.
A short description of data set [2]: in vivo. Particulars: dog, po, 10 mg/kg. The source holds these as a separate data set.
The next data set deals with PBMC. The data set can be described thus: cells. Particulars: Homo sapiens.
Data set [3] in a line: in vivo. Particulars: mouse, po, 1 mg/kg.
A short description of data set [4]: in vivo. Particulars: mouse, iv, 1 mg/kg.
A short description of data set [5]: in vivo. To be noted: dog, iv, 5 mg/kg.
Data set [6] is described as follows: in vivo. To be noted: mouse, iv, 1 mg/kg. The source holds these as a separate data set.
Data set [7] is described as follows: in vivo. Particulars: dog, plasma, po, 10 mg/kg.
Data set [8] can be described thus: in vivo. To be noted: dog, iv, 5 mg/kg. This is another data set of the same source.
Data set [9] is described as follows: in vivo. Particulars: dog, iv, 5 mg/kg. This is another data set of the same source.
Data set [10] in a line: in vivo. To be noted: mouse, po, 1 mg/kg. The source holds these as a separate data set.
A short description of data set [11]: in vivo. Particulars: mouse, iv, 1 mg/kg. This is another data set of the same source.
A short description of data set [12]: in vivo. To be noted: dog, iv, 5 mg/kg. The source holds these as a separate data set.
Data set [13] is described as follows: in vivo. Particulars: mouse, plasma, po, 1 mg/kg.
The target in a further data set is hERG (KCNH2) (Homo sapiens, UniProt Q12809). Description: in vitro.
Chain of hERG (KCNH2) (Q12809 whole entry): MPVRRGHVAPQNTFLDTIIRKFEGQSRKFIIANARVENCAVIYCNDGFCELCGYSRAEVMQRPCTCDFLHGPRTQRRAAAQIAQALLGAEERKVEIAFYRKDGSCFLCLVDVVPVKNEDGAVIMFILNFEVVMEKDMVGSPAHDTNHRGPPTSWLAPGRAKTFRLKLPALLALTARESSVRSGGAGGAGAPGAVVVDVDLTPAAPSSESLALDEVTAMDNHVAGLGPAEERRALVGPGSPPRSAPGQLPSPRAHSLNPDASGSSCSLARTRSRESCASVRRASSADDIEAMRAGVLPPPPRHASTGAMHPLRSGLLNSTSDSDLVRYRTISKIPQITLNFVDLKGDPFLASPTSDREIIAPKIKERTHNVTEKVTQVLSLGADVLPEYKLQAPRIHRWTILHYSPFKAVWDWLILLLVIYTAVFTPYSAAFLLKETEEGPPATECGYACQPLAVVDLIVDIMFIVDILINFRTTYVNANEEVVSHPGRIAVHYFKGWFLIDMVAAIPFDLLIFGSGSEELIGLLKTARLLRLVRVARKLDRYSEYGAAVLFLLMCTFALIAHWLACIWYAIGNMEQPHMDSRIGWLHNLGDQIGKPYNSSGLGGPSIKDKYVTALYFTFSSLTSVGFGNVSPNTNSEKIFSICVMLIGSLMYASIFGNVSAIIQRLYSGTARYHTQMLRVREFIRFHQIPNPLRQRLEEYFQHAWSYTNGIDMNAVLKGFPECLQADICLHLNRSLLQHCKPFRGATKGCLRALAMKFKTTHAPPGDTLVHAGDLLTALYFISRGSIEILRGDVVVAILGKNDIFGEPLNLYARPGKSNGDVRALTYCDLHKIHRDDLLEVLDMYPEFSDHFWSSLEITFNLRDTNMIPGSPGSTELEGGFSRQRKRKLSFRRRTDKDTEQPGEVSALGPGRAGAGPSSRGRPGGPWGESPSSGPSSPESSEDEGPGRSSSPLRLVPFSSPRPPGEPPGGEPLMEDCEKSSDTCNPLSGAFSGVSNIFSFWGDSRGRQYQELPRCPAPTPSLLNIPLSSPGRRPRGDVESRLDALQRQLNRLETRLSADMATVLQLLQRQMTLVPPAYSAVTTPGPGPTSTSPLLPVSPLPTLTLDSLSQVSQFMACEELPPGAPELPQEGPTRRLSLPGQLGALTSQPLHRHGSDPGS
Data set [14] can be described thus: in vivo. Particulars: dog, po, 10 mg/kg. This is another data set of the same source.
The nature of data set [15]: in vivo. Particulars: mouse, po, 1 mg/kg. The source holds these as a separate data set.
Data set [16] in a line: in vivo. Particulars: mouse, iv, 1 mg/kg. The source holds these as a separate data set.

As for `CN1C(=O)N(c2cc(Cl)cc(Cl)c2)C(=O)[C@]12CN(Cc1cc(C(=O)O)cs1)C[C@H]2c1ccc(C#N)cc1`, the values for the Cmax in the data set “in vivo [1]” and in the data set “in vivo [10]” were 18.9 µM and 0.083 µM, respectively. Also, the bioavailability in the data set “in vivo [2]” is 100%; in the data set “in vivo [15]”, 41%. This compound also showed an IC50 in the data set on PBMC of 280 nM. Besides, the Tmax in “in vivo [3]” came to 0.25 h; in “in vivo [14]” it was 2 h. Also, the Vd in “in vivo [4]” is 8.5 L/kg; in the data set “in vivo [9]”, 0.7 L/kg. Besides, the MRT was 3.3 h in “in vivo [5]” and 4.4 h in “in vivo [6]”. Further, the results for the AUC in the data set “in vivo [7]” and in the data set “in vivo [13]” were 115 µM·h and 0.306 µM·h, respectively. Further, the clearance in the data set “in vivo [8]” was determined as 3.6 mL/min/kg; in “in vivo [16]”, 32 mL/min/kg. Also, the values for the half-life in the data set “in vivo [11]” and in the data set “in vivo [12]” were 5.4 h and 3.5 h, respectively. At hERG (KCNH2), this compound yielded an inhibition at 30 µM of 24%.
